These results are taken from patent US4152425A, “Glucose containing infusion solution” (THERA Gesellschaft fur Patentverwertung mbH, priority 1976, dated 1979).

Where no end group is shown, it is not given here.

The nature of experiment [1]: Decomposition of the kinins within the organism. Conditions: in vivo. From the text: This is unexpected and surprising because the phenothiazines were known heretofore only as substances having an anti-depressive effect. This fact could cause one to conclude, however, that they could affect certain oligopeptides which influence the metabolism and would indirectly, i.e., by inhibiting the decomposition of the kinins, improve the glucose assimilation of the tissue.

The test system of a further experiment is spermatozoa. Conditions: cited from earlier work.
The next experiment has as its system resting forearm. The experiment is described as follows: Resting forearm test, 10 milliliter injection into the artery of the arm. Conditions: fraction of 1μ gram in 10 milliliter of 10% glucose solution injected into the artery of the arm, versus kinin-free solution. Format: in vivo, human. From the text:
This illustrates the improved glucose absorption into the tissue of the arm and the muscular system of the hand when the solution of the present invention is employed. Since the effect of this decrease in the glucose level of the blood by the kinin admixture occurs so quickly, it may be assumed that this is caused not by an intensification of the decomposition of the glucose or the metabolism within the cell but by a more rapid penetration of the muscular cell.

For the compound `CN(C)CCCN1c2ccccc2Sc2ccc(Cl)cc21` [2-chloro-10-(3-dimethylamino-propyl)-phenothiazine], in experiment [1], the “decomposition of the kinins within the organism” value was “inhibited significantly”. As for “RPPGFSPFR [Brady kinin, (NH2) arginine - proline - proline - glycine - phenylalanine - serine - proline - phenylalanine - arginine (COOH)]”, the “mobility of the spermatozoa” value in the experiment on spermatozoa is on record as “further the mobility of the spermatozoa”. Moreover, the “glucose content in the blood flowing through the vein of the arm” value in the experiment with resting forearm is reported as “pronounced decrease”.

With “kallidin: decapeptide kinin differing from Brady kinin only by a lysine residue at the amino end (KRPPGFSPFR; Lysyl-bradykinin; UniProt P01042 380-389, looked up)”, the “mobility of the spermatozoa” value with spermatozoa is recorded as “further the mobility of the spermatozoa”.
